These results are taken from paper PMC5840262, “Design, Synthesis and Evaluation of Branched RRWQWR-Based Peptides as Antibacterial Agents Against Clinically Relevant Gram-Positive and Gram-Negative Pathogens” (Frontiers in Microbiology, 2018).

The test system of assay [1] is Gram-positive ATCC strains (E. faecalis 29212, S. aureus 25923 and 33591). The assay is described as follows: Therapeutic index, Gram-positive ATCC strains. The settings on record: for Fold (GM peptide / GM tetrameric peptide): Gram-positive ATCC strains; for Gm, geometric mean of MIC50 values: Gram-positive ATCC strains 29212, 25923, 33591. The text has this:
We determined the therapeutic index of each peptide, which we defined as the ratio of Maximum Hemolytic Activity (Hmax) to MIC50 (Hmax/MIC50).
The therapeutic index (TI) is a ratio of the toxic dose of a substance to its therapeutically-active dose and can be calculated different ways (e.g., LD50/ED50). Here, we calculated a TI value for each peptide against all the Gram-positive or the Gram-negative ATCC strains, by dividing its Hmax by its MIC50 for the given group of strains. […] Additionally, to make our quantitative analysis more robust [geometric mean (Khachatryan et al., [2017]) and fold values], we have included MIC50 values for these peptides against S. aureus and K. pneumoniae that we previously obtained using the same assay, the M7-A7 method of the National Committee for Clinical Laboratory Standards (Leon-Calvijo et al., [2015]).

For assay [2], the system named is E. faecalis ATCC-29212 (sensitive). The assay is described as follows: Scanning electron microscopy of treated bacteria. The settings on record: 3 × MIC50, 2 h, 37°C. In kind it is cell-based, Enterococcus faecalis. As for the experimental part: (§1) We observed bacterial morphology by SEM. The E. faecalis and P. aeruginosa strains were grown to mid-logarithmic phase, and adjusted spectrophotometrically to a McFarland standard of 0.5 (corresponding to ~1 × 10^8 CFU/mL). Subsequently, 1 mL of bacterial suspension was distributed into three tubes: one tube was treated with (RRWQWR)2KAhx at 3 × the MIC50; another tube, with (RRWQWR)4K2Ahx2C2 at the same concentration; and the third tube was left untreated, as a control. The samples were incubated aerobically at 37°C for 2 h, and the bacterial suspensions were centrifuged at 1,459 × g for 3 min and then, washed twice with Millonig's Phosphate Buffer (0.10 M, pH 7.4). For SEM, each sample was fixed with 1 mL of 2.5% glutaraldehyde at 4°C for 2 h. The fixed samples were dehydrated in an ethanol gradient (50, 70, 80, 90, and 100%) for 20 min and then, centrifuged at 1,459 × g for 10 min. The bacterial pellet was resuspended in 100% ethyl alcohol and air-dried. Finally, the slides were taped onto stubs, coated with gold using a Quorum Q150R sputter coater, and observed with an FEI Quanta 200-r microscope.
We used SEM to study the morphology of bacterial cells before and after treatment with either branched peptide (dimeric and tetrameric). […]

The subject of assay [3] is P. aeruginosa ATCC-10145 (sensitive). The assay is described as follows: Scanning electron microscopy of treated bacteria. The class given is cell-based, Pseudomonas aeruginosa. Particulars: 3 × MIC50, 2 h, 37°C. Here is the method: as §1
(§2) We used SEM to study the morphology of bacterial cells before and after treatment with either branched peptide (dimeric and tetrameric). To this end, each strain of E. faecalis and P. aeruginosa was first studied by SEM; then, independently treated in the exponential phase with either peptide at 3 × the corresponding MIC50 value for 2 h (except for the resistant E. faecalis strain, for which a peptide concentration of 200 μM was used); and finally, studied by SEM again.

Assay [4] has as its system P. aeruginosa ATCC-27853 (resistant). Briefly: Scanning electron microscopy of treated bacteria. Particulars: 3 × MIC50, 2 h, 37°C. In kind it is cell-based, Pseudomonas aeruginosa. Here is the method: as §1, §2
Assay [5] deals with Staphylococcus aureus ATCC 25923 (sensitive). The settings on record: S. aureus ATCC 25923, sensitive strain; MIC50 previously obtained with the same assay (M7-A7); ref Leon-Calvijo et al., 2015; cited from earlier work. An excerpt: Table 6 Therapeutic Index values for the RRWQWR-based peptides against the ATCC strains of HCAI-relevant bacteria. | column: Gram positive / MIC (μM) / ^d25923-^cS

Assay [6] concerns Staphylococcus aureus ATCC 33591 (resistant). Particulars: S. aureus ATCC 33591, resistant strain; MIC50 previously obtained with the same assay (M7-A7); ref Leon-Calvijo et al., 2015; cited from earlier work. An excerpt:
Table 6 Therapeutic Index values for the RRWQWR-based peptides against the ATCC strains of HCAI-relevant bacteria. | column: Gram positive / MIC (μM) / ^e33591-^fR

Assay [7] concerns Klebsiella pneumonia ATCC 13883 (sensitive). The settings on record: K. pneumoniae ATCC 13883, sensitive strain; MIC50 previously obtained with the same assay (M7-A7); ref Leon-Calvijo et al., 2015; cited from earlier work. An excerpt: Table 6 Therapeutic Index values for the RRWQWR-based peptides against the ATCC strains of HCAI-relevant bacteria. | column: Gram negative / MIC (μM) / ^k13883-^cS

Assay [8] relates to Klebsiella pneumoniae ATCC 700603 (resistant). Particulars: K. pneumoniae ATCC 700603, resistant strain; MIC50 previously obtained with the same assay (M7-A7); ref Leon-Calvijo et al., 2015; cited from earlier work. The text has this: Table 6 Therapeutic Index values for the RRWQWR-based peptides against the ATCC strains of HCAI-relevant bacteria. | column: Gram negative / MIC (μM) / ^l700603-^fR

The test system of another assay is ATCC reference strains. Briefly: Antibacterial activity against the ATCC reference strains, overall. The settings on record: against the ATCC reference strains of E. faecalis and P. aeruginosa, all strains together. The class given is cell-based. Here is the method:
We screened all five peptides against the ATCC reference strains and the clinical isolates according to Method M7-A7 of the National Committee for Clinical Laboratory Standards (CLSI, [2007]). The MIC50 and MBC values were determined using a broth microdilution and growth inhibition method previously reported by Leon-Calvijo et al. ([2015]), with some modifications (Wiegand et al., [2008]). Briefly, the MIC50 experiments comprised a liquid-inhibition growth assay in a sterile, untreated, 96-well flat-bottom tissue culture plate. […] The turbidity of the cultures was measured and adjusted spectrophotometrically to a McFarland standard of 0.5, and then diluted to a final concentration of 5 × 10^7 colony forming units (CFU) per well. […] Each concentration was evaluated in duplicate and each assay was performed in triplicate.
Wells containing Mueller Hilton broth with bacterial inoculum only served as bacterial-growth controls. […] The microplate was incubated for 24 h at 37°C, and growth inhibition was measured by monitoring the optical density at 620 nm (OD620). […]
To determine the MBC, an aliquot from each well of the MIC50 assay was spread onto Mueller Hilton agar. After 18 h at 37°C, the concentration that inhibited bacterial growth was determined. […]

Converted amounts (≈) assume the structure as drawn. Bridge positions count the residues as written; N and C are the ends. Square brackets hold non-standard residues; d marks the D form. Ends that are not written are not given here. Peptide text beside a SMILES is read from it. I, II: the chains in the order shown. Ahx = NCCCCCC(=O)O

For orientation: MIC means the smallest concentration in the dilution series that meets the test's criterion for growth inhibition. For the molecule “(RRWQWR)4K2Ahx2C2 (disulfide) [LfcinB (20–25)4, branched tetrameric peptide (RRWQWR)4K2Ahx2C2, two dimers linked by a cysteine disulfide bridge]”, in assay [1], the “Fold (GM peptide / GM tetrameric peptide)” value was 1.0. This molecule returned a Gm, geometric mean of MIC50 values in assay [1] of 3.1 µM. Also, the “Morphology of bacterial cells by SEM after treatment” value is “population decline, cell-size heterogeneity and cell-surface alterations in the form of protrusions” in [2]; “very heterogeneous population and to alterations in the cell surface” in assay [3]; “disintegrated and irregularly-shaped mucoid cells” in assay [4]. Also, the minimal inhibitory concentration (MIC) was 1.7 µM in assay [5], 5.9 µM in assay [6], 12.0 µM in assay [7] and 6.2 µM in assay [8].

What is called MIC50 is the lowest concentration that inhibits either 50% of growth or 50% of the strains tested, depending on the study. Read a high MIC50 as weaker potency. “RRWQWR-NH2 [LfcinB (20–25), reference compound]” returned an MIC50 with ATCC reference strains of more than 200 µM.

As for `N=C(N)NCCC[C@H](NC(=O)[C@H](Cc1c[nH]c2ccccc12)NC(=O)[C@H](CCC(N)=O)NC(=O)[C@H](Cc1c[nH]c2ccccc12)NC(=O)[C@H](CCCNC(=N)N)NC(=O)[C@@H](N)CCCNC(=N)N)C(=O)NCCCC[C@H](NC(=O)[C@H](CCCNC(=N)N)NC(=O)[C@H](Cc1c[nH]c2ccccc12)NC(=O)[C@H](CCC(N)=O)NC(=O)[C@H](Cc1c[nH]c2ccccc12)NC(=O)[C@H](CCCNC(=N)N)NC(=O)[C@@H](N)CCCNC(=N)N)C(=O)NCCCCCC(N)=O` [LfcinB (20–25)2] (I: H-RRWQWRK[Ahx]-NH2 / II: H-RRWQWR; amide I:7-II:C; N-terminus assumed), the “Fold (GM peptide / GM tetrameric peptide)” value in assay [1] turned out to be 3.1. The Gm, geometric mean of MIC50 values in assay [1] was 9.8 µM. Moreover, the “Morphology of bacterial cells by SEM after treatment” value in [2] is “random organization with morphological alterations”; in assay [3] it was “clear reduction in population and caused morphological alterations”; in assay [4], “marked drop in population and severe morphological alterations”. In addition, the MIC in assay [5] was 3.0 µM (≈ 6.59 µg/mL); in [6] it was 24.1 µM (≈ 52.9 µg/mL); in [7] it was 9.0 µM (≈ 19.8 µg/mL); in assay [8] it was 7.3 µM (≈ 16 µg/mL).
